Like-named read-outs stand apart in the source and are kept apart here.
How the values were obtained:
B2-CLL lymphocytes = assay: Survival / cell death of B2-CLL lymphocytes from patients; format: cell-based, human
Description: Cell viability was determined by measuring the reduction of 3-(4,5-dimethylthiazol-2-yl)-5-(3-carboxymethoxyphenyl)-2-(4-sulfophenyl)-2/H-tetrazolium (MTS). Cell death was determined by measuring the level of lactate dehydrogenase activity (LDH) released upon cell lysis.

CDK5/p25 = biological target: T1, CDK5/p25 (Homo sapiens, UniProt Q00535); assay: CDK5/p25 kinase assay; format: biochemical
T1 construct: made in house
Description: (§1) Controls were performed with appropriate dilutions of dimethylsulfoxide.
(§2) ATP (3,000 Ci/mmol; 10 mCi/ml) in a final volume of 30 μl. After 30 min. incubation at 30° C., 25 μl aliquots of supernatant were spotted onto 2.5×3 cm pieces of Whatman P81 phosphocellulose paper, and, 20 sec. later, the filters were washed five times (for at least 5 min. each time) in a solution of 10 ml phosphoric acid/liter of water. The wet filters were counted in the presence of 1 ml ACS (Amersham) scintillation fluid.

HCT116 (Spheroids) = assay: Cell survival, HCT116 (Spheroids); format: cell-based; settings: Homo sapiens, HCT-116; Table 6
CDK2/cyclin A = biological target: T2, CDK2/cyclin A (Homo sapiens, UniProt P24941); assay: CDK2/cyclin A kinase assay; format: biochemical; settings: Table 5; read-out: CDK2/cyclin A
T2 construct: made in house; host or cells: insect cells
Description: (§3) Blank values were subtracted and activities expressed in % of the maximal activity, i.e. in the absence of inhibitors. Controls were performed with appropriate dilutions of dimethylsulfoxide.
CDK2/cyclin A (human, recombinant, expressed in insect cells) was assayed as described for CDK1/cyclin B.

[1] = tested on: HEK 293 human embryonic kidney cell line; assay: Cell survival (MTS assay), HEK293; format: cell-based
Description: (§4) SH-SY5Y human neuroblastoma cells were grown in DMEM medium (Invitrogen, Cergy Pontoise, France). […] Human foreskin primary fibroblasts (kindly provided by Dr. Gilles Ponzio) were grown in DMEM supplemented with 2 mM L-glutamine and 20 mM HEPES. All the media were supplemented with antibiotics (penicillin-streptomycin) from Lonza and 10% volume of FCS from Invitrogen. Cells were cultured at 37° C. with 5% CO2. Drug treatments were performed on exponentially growing cultures at the indicated time and concentrations. Control experiments were carried out using appropriate dilutions of DMSO. MDCK cell-lines were used to test compounds PKD.

CDK9/cyclin T = biological target: T3, CDK9/cyclin T (Homo sapiens, UniProt P50750); assay: CDK9/cyclin T kinase assay; format: biochemical; settings: Table 5; read-out: CDK9/cyclin T
T3 construct: made in house; host or cells: insect cells
Description: as §3

[2] = tested on: retinoblastoma protein phosphorylation; assay: Western blot, retinoblastoma protein phosphorylation on CDK2/CDK4 sites in SH-SY5Y; format: cell-based, human; settings: for total Rb: FIG. 8
Description: as §4
(§5) Cells were resuspended and lysed for 30 minutes at 4° C. in Homogenization Buffer [60 mM β-glycerophosphate, 15 mM p-nitrophenyl phosphate, 25 mM MOPS (pH 7.2), 15 mM EGTA, 15 mM MgCl2, 1 mM dithiothreitol, 1 mM sodium vanadate, 1 mM NaF, 1 mM phenylphosphate, 0.1% Nonidet P-40 and protease inhibitor cocktail] and sonicated. After centrifugation (14000 rpm for 15 minutes at 4° C.), the protein concentration was determined in the supernatants by the Bradford protein assay (Bio-Rad).
(§6) Whole cell extracts were prepared in buffer containing 100 mM Tris/HCl (pH, 6.8), 1 mM EDTA, 2% SDS and protease inhibitor cocktail. Following heat denaturation for 5 minutes, proteins were separated on 10% or 7% NuPAGE pre-cast Bis-Tris or Tris-Acetate polyacrylamide mini gels (Invitrogen) with MOPS SDS (all but cytochrome C, RNA polymerase II and phospho-Ser2—RNA polymerase II Western blots), MES SDS (cytochrome C), or Tris-Acetate SDS (RNA polymerase II and phospho-Ser2—RNA polymerase II) running buffer depending on protein size. Proteins were transferred to 0.45 μm nitrocellulose filters (Schleicher and Schuell). These were blocked with 5% low fat milk in Tris-Buffered Saline—Tween-20, incubated for 1 h with antibodies (anti-actin: 1:2000) or overnight at 4° C. (cytochome C: 1:500), Rb (1:500), phosphor-Rb (1:500), phospho-Thr320-PP1α (1:1000), RNA polymerase II (1:500), phosphor-Ser2-RNA polymerase II (1:500), Mcl-1 (1:500), caspase-9 (1:1000) and analyzed by Enhanced Chemiluminescence (ECL, Amersham).

Erk2 = Erk2 (Homo sapiens, UniProt P28482); assay: Erk2 kinase assay; format: biochemical; settings: Table 5
Description: as §3
(§7) The compounds were tested at various concentrations in the kinase assays, as described in the Methods section.

DYRK1A = DYRK1A (Homo sapiens, UniProt Q13627); assay: DYRK1A kinase assay; format: biochemical; settings: Table 5; read-out: DYRK1A
Description: as §3, §7

GSK-3α/β = GSK-3α/β kinase assay; format: biochemical, porcine
Description: as §3

LS 174T = assay: Cell survival, LS 174T; format: cell-based; settings: Homo sapiens, LS174T; Table 6
Description: Cell viability was determined by measuring the reduction of 3-(4,5-dimethylthiazol-2-yl)-5-(3-carboxymethoxyphenyl)-2-(4-sulfophenyl)-2H-tetrazolium (MTS). Cell death was determined by measuring the level of lactate dehydrogenase activity (LDH) released upon cell lysis.

[3] = tested on: RNA polymerase II Ser2 phosphorylation; assay: Western blot, RNA polymerase II Ser2 phosphorylation in SH-SY5Y; format: cell-based, human; settings: for total RNA pol II: FIG. 10
Description: (§8) SH-SY5Y human neuroblastoma cells were grown in DMEM medium (Invitrogen, Cergy Pontoise, France). The HEK 293 human embryonic kidney cell line was grown in MEM medium from Invitrogen. Human foreskin primary fibroblasts (kindly provided by Dr. Gilles Ponzio) were grown in DMEM supplemented with 2 mM L-glutamine and 20 mM HEPES. All the media were supplemented with antibiotics (penicillin-streptomycin) from Lonza and 10% volume of FCS from Invitrogen. Cells were cultured at 37° C. with 5% CO2. Drug treatments were performed on exponentially growing cultures at the indicated time and concentrations. Control experiments were carried out using appropriate dilutions of DMSO. MDCK cell-lines were used to test compounds PKD.
as §5, §6

CDK1/cyclin B = CDK1/cyclin B kinase assay; format: biochemical, starfish
Description: as §1, §2

CDK2/cyclin E = CDK2/cyclin E (Homo sapiens, UniProt P24941); assay: CDK2/cyclin E kinase assay; format: biochemical; settings: Table 5
Description: as §1, §7

CK1δ/ε = assay: CK1 kinase assay; format: biochemical, porcine; settings: read-out: CK1
Description: as §3

CDK7/cyclin H = CDK7/cyclin H (Homo sapiens, UniProt P50613); assay: CDK7/cyclin H kinase assay; format: biochemical; settings: Table 4
Description: as §3, §7

[4] = tested on: SH-SY5Y human neuroblastoma cells; assay: Cell survival (MTS assay), SH-SY5Y; format: cell-based; settings: read-out: SH-SY5Y cell survival
Description: as §4

p53 total protein = assay: Western blot, p53 total protein in SH-SY5Y; format: cell-based, human; settings: FIG. 13, compared with (R)-Roscovitine
Description: as §8, §5
(§9) Whole cell extracts were prepared in buffer containing 100 mM Tris/HCl (pH, 6.8), 1 mM EDTA, 2% SDS and protease inhibitor cocktail. […]

PARP cleavage = assay: Western blot, PARP cleavage in SH-SY5Y; format: cell-based, human; settings: FIG. 15, compared with (R)-Roscovitine
Description: as §8, §5, §9

p27 total protein = assay: Western blot, p27 total protein in SH-SY5Y; format: cell-based, human; settings: FIG. 14, compared with (R)-Roscovitine
Description: as §8, §5, §9

Mcl-1 = assay: Western blot, survival factor Mcl-1 in SH-SY5Y; format: cell-based, human; settings: FIG. 12, compared with (R)-Roscovitine
Description: as §8, §5, §9

[5] = tested on: protein phosphatase 1-α Thr320 phosphorylation; assay: Western blot, protein phosphatase 1-α phosphorylation on Thr320 in SH-SY5Y; format: cell-based, human; settings: FIG. 11, compared with (R)-Roscovitine
Description: as §8, §5, §9

HCT116 (Oncodesign) = assay: Cell survival, HCT116 (Oncodesign); format: cell-based; settings: Homo sapiens, HCT-116; Table 6
LS 174T (Oncodesign) = assay: Cell survival, LS 174T (Oncodesign); format: cell-based; settings: Homo sapiens, LS174T; Table 6
cell lines = assay: Anti-proliferative activities on cell lines, summary; format: cell-based; settings: in words; listed as formula Ib
[6] = Homo sapiens, Lymphocyte, LLC B-cells, read-out: Cell death induction
[7] = Homo sapiens, Lymphocyte, Table 6, read-out: Chronic Lymphocytic Leukemia cell survival
[8] = Table 5, read-out: CDK1/cyclin B

T3 sequence (P50750 whole entry): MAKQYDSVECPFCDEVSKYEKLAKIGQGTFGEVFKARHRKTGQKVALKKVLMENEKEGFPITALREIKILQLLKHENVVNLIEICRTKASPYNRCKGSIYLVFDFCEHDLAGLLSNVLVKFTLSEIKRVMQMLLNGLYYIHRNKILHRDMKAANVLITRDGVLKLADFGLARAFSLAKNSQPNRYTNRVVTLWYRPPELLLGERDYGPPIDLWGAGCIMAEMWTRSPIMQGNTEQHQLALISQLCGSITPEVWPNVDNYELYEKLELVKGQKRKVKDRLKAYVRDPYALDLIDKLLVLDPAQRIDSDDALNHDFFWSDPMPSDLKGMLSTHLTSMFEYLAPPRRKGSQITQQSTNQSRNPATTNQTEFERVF
T3 sequence (O60563 whole entry partner): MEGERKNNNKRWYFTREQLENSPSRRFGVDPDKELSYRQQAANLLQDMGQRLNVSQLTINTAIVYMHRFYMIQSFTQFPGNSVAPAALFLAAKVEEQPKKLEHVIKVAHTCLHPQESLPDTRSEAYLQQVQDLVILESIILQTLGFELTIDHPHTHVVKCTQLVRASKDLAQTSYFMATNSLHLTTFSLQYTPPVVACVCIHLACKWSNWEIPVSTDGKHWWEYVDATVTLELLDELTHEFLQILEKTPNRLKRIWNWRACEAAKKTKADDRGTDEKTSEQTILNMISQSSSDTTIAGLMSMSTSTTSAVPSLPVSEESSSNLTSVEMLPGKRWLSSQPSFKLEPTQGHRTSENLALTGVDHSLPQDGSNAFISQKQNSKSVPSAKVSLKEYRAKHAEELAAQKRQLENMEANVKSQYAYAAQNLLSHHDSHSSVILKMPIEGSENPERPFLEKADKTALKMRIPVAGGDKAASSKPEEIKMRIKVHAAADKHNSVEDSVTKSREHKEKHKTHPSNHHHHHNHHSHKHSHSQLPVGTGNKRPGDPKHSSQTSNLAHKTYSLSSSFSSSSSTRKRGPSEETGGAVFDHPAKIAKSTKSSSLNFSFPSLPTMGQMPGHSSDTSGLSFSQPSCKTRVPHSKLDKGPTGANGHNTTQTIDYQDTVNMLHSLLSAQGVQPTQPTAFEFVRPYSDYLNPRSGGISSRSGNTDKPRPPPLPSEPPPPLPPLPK
Sequence of Erk2 (P28482 whole entry, species assumed): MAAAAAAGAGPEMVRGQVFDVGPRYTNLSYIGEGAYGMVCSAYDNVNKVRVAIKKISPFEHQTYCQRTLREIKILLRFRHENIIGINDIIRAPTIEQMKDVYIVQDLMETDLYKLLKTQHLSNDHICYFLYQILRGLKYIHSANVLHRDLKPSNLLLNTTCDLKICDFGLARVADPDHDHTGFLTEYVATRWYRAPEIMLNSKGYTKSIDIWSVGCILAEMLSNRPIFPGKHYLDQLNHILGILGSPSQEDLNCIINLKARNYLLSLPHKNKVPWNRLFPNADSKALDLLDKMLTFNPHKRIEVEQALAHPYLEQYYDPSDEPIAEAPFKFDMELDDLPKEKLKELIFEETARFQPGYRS
T1 sequence (Q00535 whole entry): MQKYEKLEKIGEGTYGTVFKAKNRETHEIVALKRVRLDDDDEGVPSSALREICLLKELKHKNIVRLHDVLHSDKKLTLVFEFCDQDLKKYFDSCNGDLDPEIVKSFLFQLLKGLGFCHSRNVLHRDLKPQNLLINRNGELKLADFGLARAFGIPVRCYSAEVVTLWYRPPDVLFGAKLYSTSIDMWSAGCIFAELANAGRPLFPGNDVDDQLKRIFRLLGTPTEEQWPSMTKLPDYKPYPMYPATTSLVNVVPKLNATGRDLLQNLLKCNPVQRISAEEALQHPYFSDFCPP
T1 sequence (Q15078 99-307 partner limits assumed): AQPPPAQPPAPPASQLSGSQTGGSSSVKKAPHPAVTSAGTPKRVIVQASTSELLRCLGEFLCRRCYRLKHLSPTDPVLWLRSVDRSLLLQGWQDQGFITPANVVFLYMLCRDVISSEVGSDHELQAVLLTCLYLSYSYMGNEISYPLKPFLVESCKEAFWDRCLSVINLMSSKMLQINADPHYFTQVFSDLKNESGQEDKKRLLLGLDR
Sequence of CDK7/cyclin H (P50613 whole entry, species assumed): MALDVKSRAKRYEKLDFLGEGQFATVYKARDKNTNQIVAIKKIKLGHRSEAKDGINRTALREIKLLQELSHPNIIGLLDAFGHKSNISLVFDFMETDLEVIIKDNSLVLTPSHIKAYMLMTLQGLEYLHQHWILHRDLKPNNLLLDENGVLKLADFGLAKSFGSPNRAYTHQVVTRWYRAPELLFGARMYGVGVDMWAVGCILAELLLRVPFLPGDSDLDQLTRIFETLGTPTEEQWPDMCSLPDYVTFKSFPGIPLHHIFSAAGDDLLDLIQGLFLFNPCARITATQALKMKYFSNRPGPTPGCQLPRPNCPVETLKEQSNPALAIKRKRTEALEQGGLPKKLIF
Sequence of CDK7/cyclin H (P51946 whole entry partner, species assumed): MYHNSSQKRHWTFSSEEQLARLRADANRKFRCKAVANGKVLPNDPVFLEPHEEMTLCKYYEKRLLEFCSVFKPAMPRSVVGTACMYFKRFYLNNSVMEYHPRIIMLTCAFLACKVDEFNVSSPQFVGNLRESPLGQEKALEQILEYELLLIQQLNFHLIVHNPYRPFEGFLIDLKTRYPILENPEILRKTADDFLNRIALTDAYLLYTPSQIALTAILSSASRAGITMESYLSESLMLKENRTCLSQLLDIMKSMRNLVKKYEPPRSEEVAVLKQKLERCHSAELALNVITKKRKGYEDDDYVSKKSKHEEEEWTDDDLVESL

Row | Compound | IC50 (B2-CLL lymphocytes; [6]) [µM] | IC50 (B2-CLL lymphocytes; [7]) [µM] | IC50 (CDK5/p25; Table 5, read-out: CDK5/p25) [nM] | IC50 (HCT116 (Spheroids)) [µM] | IC50 (CDK2/cyclin A) [nM] | IC50 ([1]; HEK293, Table 6, MTS assay) [µM] | IC50 (CDK9/cyclin T) [nM] | total Rb [2] | IC50 (Erk2) [µM] | IC50 (DYRK1A) [µM] | IC50 (GSK-3α/β; Table 5, read-out: GSK-3α/β) [µM] | IC50 (LS 174T) [µM] | total RNA pol II [3] | IC50 (CDK1/cyclin B; [8]) [nM] | IC50 (CDK2/cyclin E) [nM] | IC50 (CK1δ/ε; Table 5) [µM] | IC50 ([4]; Table 6, MTS assay) [µM] | other results
1 | CC[C@H](CO)Nc1cc(NCc2ccccc2)c2ncn(C(C)C)c2n1 [(R)-perharidine A] | 7.05 | 7.05 | 400 | 10 | 300 | 27.4 | 480 | essentially constant | 7 | 2.8 | > 100 | 21.5 | essentially constant | 430 | 180 | 11 | 14.3 | IC50 (CDK5/p25; Table 4, read-out: CDK5): 200 nM; IC50 ([1]; HEK293, Table 4, MTS assay): 35.6 µM; IC50 (GSK-3α/β; Table 4, read-out: GSK3): > 30 µM; IC50 (CDK1/cyclin B; Table 4, read-out: CDK1): 350 nM; IC50 (CK1δ/ε; Table 4): 4 µM; IC50 (CDK7/cyclin H): 900 nM; IC50 ([4]; Table 4, MTS assay): 16.2 µM
2 | CC[C@H](CO)Nc1cc(NCc2ccc(-c3ccccn3)cc2)c2ncn(C(C)C)c2n1 [(R)-perharidine C] | 0.31 | 0.31 | 600 | 0.35 | 360 |  | 530 | essentially constant | 22 | 11 | 11 |  | essentially constant | 460 | 250 | 1.1 | 1.46 | IC50 (B2-CLL lymphocytes; LLC B-cells, read-out: Cell death induction): 0.28 µM; p53 total protein expression (p53 total protein): at lower concentration than (R)-Roscovitine; PARP cleavage (PARP cleavage): at lower concentration than (R)-Roscovitine; p27 total protein down-regulation (p27 total protein): at lower concentration than (R)-Roscovitine; inhibition of CDK2/4 in cells (retinoblastoma protein phosphorylation) ([2]; compared with (R)-Roscovitine): at lower concentrations than (R)-Roscovitine; down-regulation of survival factor Mcl-1 (Mcl-1): at lower concentration than (R)-Roscovitine; inhibition of CDK1/cyclin B in cells (protein phosphatase 1-α Thr320 phosphorylation) [5]: at lower concentration than (R)-Roscovitine; inhibition of CDK9 in cells (RNA polymerase II Ser2 phosphorylation) ([3]; FIG. 9, compared with (R)-Roscovitine): at lower concentration than (R)-Roscovitine; IC50 (HCT116 (Oncodesign)): 600 nM; IC50 (LS 174T (Oncodesign)): 290 nM
3 | CC[C@@H](CO)Nc1cc(NCc2ccccc2)c2ncn(C(C)C)c2n1 [(S)-perharidine B, (S)-7-Benzylamino-5-[(2-butyl-1-ol)amino]-3-iso-propylimidazo[4,5-b]pyridine] | 15.3 | 15.3 | 500 |  | 420 | 45 | 1300 | essentially constant | 9 | 22 | > 30 | 37.5 | essentially constant | 730 | 310 | 4.8 | 28 | anti-proliferative activities compared with (R)-Roscovitine (cell lines): somewhat less efficient
